Measurements reported in US20090281099A1, “SUBSTITUTED PYRAZINONE DERIVATIVES FOR USE AS A MEDICINE” (priority 2006, published 2009).

Columns and labels:
hα2A receptor = target: T1, hα2A receptor (Homo sapiens, UniProt P08913); assay: Radioligand binding experiment for hα2A receptor ([3H]-raulwolscine, CHO cell membranes); settings: [3H]raulwolscine 1 nM, membranes of CHO cells transfected with human α2A receptor; read-out: h-α2A pIC50 (converted)
T1 construct: expressed in transfected cells
T1 sequence (P08913 1-465): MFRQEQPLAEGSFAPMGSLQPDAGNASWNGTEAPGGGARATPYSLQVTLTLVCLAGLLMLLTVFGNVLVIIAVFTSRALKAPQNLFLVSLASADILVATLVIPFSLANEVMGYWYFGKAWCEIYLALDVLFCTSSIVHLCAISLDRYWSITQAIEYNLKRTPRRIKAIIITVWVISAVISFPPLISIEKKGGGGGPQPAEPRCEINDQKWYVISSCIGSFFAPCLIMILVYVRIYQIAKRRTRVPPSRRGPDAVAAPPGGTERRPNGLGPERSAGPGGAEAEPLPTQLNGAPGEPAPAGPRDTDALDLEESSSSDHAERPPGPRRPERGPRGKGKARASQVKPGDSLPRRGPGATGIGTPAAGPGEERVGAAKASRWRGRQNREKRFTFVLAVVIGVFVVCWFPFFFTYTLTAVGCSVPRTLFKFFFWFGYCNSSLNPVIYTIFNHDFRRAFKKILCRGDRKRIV

5HT-Transporter = target: T2, 5HT-Transporter (Homo sapiens, UniProt P31645); assay: Binding experiment for the 5HT-transporter ([3H]paroxetine, human platelet membranes); settings: [3H]paroxetine 0.5 nM, read-out: h-5HTT pIC50 (converted)
T2 construct: Human platelet membranes (Oceanix Biosciences Corporation, Hanover, Md., USA) were thawed; tissue Oceanix Biosciences Corporation; host or cells: human platelet membranes

hα2C receptor = target: T3, hα2C receptor (Homo sapiens, UniProt P18825); assay: Radioligand binding experiment for α2C-adrenoceptor ([3H]-raulwolscine, CHO cell membranes); settings: [3H]raulwolscine 1 nM, membranes of CHO cells transfected with human α2C receptor; read-out: h-α2C pIC50 (converted)
T3 construct: expressed in transfected cells
T3 sequence (P18825 1-462): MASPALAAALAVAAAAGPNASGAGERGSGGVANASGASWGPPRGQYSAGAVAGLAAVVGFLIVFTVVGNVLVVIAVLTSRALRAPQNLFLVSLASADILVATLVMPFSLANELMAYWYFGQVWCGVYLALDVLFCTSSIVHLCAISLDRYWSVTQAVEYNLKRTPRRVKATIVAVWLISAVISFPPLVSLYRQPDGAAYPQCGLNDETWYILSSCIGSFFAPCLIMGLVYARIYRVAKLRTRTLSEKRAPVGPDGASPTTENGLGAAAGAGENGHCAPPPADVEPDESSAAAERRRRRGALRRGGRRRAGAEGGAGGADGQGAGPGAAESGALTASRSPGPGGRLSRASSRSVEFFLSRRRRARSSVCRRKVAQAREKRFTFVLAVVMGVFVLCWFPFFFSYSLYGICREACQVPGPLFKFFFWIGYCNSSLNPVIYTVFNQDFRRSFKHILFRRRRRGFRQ

T2 sequence (P31645 whole entry): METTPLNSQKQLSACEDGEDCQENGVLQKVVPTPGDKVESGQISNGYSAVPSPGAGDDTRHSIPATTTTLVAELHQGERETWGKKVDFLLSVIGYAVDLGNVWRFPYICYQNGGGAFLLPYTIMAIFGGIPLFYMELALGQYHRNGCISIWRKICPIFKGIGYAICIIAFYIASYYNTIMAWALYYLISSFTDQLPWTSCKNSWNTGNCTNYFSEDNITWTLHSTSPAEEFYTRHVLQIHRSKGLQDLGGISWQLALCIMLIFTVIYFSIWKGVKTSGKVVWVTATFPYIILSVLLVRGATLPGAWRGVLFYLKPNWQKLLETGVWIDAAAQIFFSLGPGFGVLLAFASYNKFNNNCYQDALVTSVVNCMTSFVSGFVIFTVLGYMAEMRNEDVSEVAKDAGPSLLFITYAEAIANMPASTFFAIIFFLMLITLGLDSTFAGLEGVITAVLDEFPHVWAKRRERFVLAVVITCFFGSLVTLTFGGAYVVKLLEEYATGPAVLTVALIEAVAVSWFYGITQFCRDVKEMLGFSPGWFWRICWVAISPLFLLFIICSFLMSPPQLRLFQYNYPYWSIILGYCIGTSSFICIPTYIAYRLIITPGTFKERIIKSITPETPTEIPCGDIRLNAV

`Cc1nc(Cn2ccnc(N3CCN(CCOc4ccc(F)cc4)CC3)c2=O)cs1` [Compound 12-3] was tested, and the IC50 (hα2A receptor) was 251 nM, the IC50 (5HT-Transporter) was over 10000 nM and the IC50 (hα2C receptor) was 316 nM.

For `COc1ccc(-c2nnc(Cn3ccnc(N4CCN(CCOc5ccc(F)cc5)CC4)c3=O)o2)cc1` [Compound 12-4], the IC50 (hα2A receptor) was 158 nM, the IC50 (5HT-Transporter) was 794 nM and the IC50 (hα2C receptor) was 158 nM.

`O=c1[nH]ccnc1N1CCN(CCOc2ccc(F)cc2)CC1` [Compound 13-1] gave an IC50 (hα2A receptor) of 501 nM, an IC50 (5HT-Transporter) of over 10000 nM and an IC50 (hα2C receptor) of 251 nM.

Compound `CCCn1ccnc(N2CCN(CCOc3ccc(F)cc3)CC2)c1=O` [Compound 13-2] has an IC50 (hα2A receptor) of 631 nM, an IC50 (5HT-Transporter) of over 10000 nM and an IC50 (hα2C receptor) of 398 nM.

`O=c1c(N2CCN(CCOc3ccc(F)cc3)CC2)nccn1CC1CCCCC1` [Compound 13-3] was tested, and the IC50 (hα2A receptor) was 501 nM, the IC50 (5HT-Transporter) was 7940 nM and the IC50 (hα2C receptor) was 251 nM.

Compound `CC(C)(C)C(=O)Cn1ccnc(N2CCN(CCOc3ccc(F)cc3)CC2)c1=O` [Compound 13-4] has an IC50 (hα2A receptor) of 316 nM, an IC50 (5HT-Transporter) of over 10000 nM and an IC50 (hα2C receptor) of 200 nM.

Work on `C=CCn1ccnc(N2CCN(CCOc3ccc(F)cc3)CC2)c1=O` [Compound 13-5] yielded an IC50 (hα2A receptor) of 501 nM, an IC50 (5HT-Transporter) of over 10000 nM and an IC50 (hα2C receptor) of 501 nM.
